From patent US8809376B2, “Indanyloxydihydrobenzofuranylacetic acids” (Boehringer Ingelheim International GmbH, priority 2012, dated 2014)

The molecules below were run against human GPR40 receptor (Homo sapiens, UniProt O14842) (assay: Assay I: IP1 accumulation (IPOne assay system) in 1321N1 cells stably expressing human GPR40 receptor). Details: stimulated 1 hour at 37° C., 10% CO2, LiCl 50 mM.
Chain of human GPR40 receptor (O14842 whole entry): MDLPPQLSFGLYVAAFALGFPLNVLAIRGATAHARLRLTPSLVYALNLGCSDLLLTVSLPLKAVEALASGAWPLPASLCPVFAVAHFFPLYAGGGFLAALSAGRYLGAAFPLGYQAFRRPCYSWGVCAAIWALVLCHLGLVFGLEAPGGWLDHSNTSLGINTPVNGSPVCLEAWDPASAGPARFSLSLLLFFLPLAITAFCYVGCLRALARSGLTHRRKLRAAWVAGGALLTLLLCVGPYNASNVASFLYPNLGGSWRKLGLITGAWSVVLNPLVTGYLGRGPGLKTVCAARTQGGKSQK
Assay type: cell-based
Procedure: IP1 accumulation measurements using the IPOne assay system—1321N1 cells stably expressing human GPR40 receptor (Euroscreen, Belgium) are seeded 24 h before the assay in black clear-bottom collagen-coated 384-well plates in culture medium containing 10% FCS, 1% Na-Pyruvate and 400 μg/mL G418. IP1 is assayed according to the Manufacturer's description (Cisbio Bioassays, France). In brief, the assay is started by substitution of the culture medium by stimulation buffer (Hepes 10 mM, CaCl2 1 mM, MgCl2 0.5 mM, KCl 4.2 mM, NaCl 146 mM and glucose 5.5 mM, pH 7.4) without LiCl. Cells are stimulated for 1 hour at 37° C., 10% CO2 by addition of the compounds that are diluted in stimulation buffer containing LiCl yielding a final LiCl concentration of 50 mM. Assays are stopped by adding HTRF-conjugates (IP1-d2 and Anti-IP1 cryptate Tb) and lysis buffer, provided by the manufacturer. After an incubation time of 1 hour at room temperature plates are measured using an EnVision™, Perkin Elmer. The obtained fluorescence ratios at 665/615 nM are then used to calculate the pEC50 values using GraphPad Prism 5 (Graphpad Software Inc, USA) by interpolation using an IP1 reference curve and subsequent sigmoidal curve fitting allowing for a variable hill slope.
Work on Cc1ccccc1Cc1c(C#N)ccc2c1CC[C@H]2Oc1ccc2c(c1)OC[C@H]2CC(=O)O [Example 6, {(S)-6-[(R)-5-Cyano-4-(2-methyl-benzyl)-indan-1-yloxy]-2,3-dihydro-benzofuran-3-yl}-acetic acid] yielded an EC50 of 8 nM. CSc1ccc(Cc2c(C#N)ccc3c2CC[C@H]3Oc2ccc3c(c2)OC[C@H]3CC(=O)O)cc1 [Example 7, {(S)-6-[(R)-5-Cyano-4-(4-methylsulfanyl-benzyl)-indan-1-yloxy]-2,3-dihydro-benzofuran-3-yl}-acetic acid] was tested, and the EC50 was 18 nM. CS(=O)(=O)c1ccc(Cc2c(C#N)ccc3c2CC[C@H]3Oc2ccc3c(c2)OC[C@H]3CC(=O)O)cc1 [Example 8, {(S)-6-[(R)-5-Cyano-4-(4-methylsulfonyl-benzyl)-indan-1-yloxy]-2,3-dihydro-benzofuran-3-yl}-acetic acid] showed an EC50 of 325 nM. N#Cc1cccc(Cc2c(C#N)ccc3c2CC[C@H]3Oc2ccc3c(c2)OC[C@H]3CC(=O)O)c1 [Example 9, {(S)-6-[(R)-5-Cyano-4-(3-cyano-benzyl)-indan-1-yloxy]-2,3-dihydro-benzofuran-3-yl}-acetic acid] was tested, and the EC50 was 29 nM. With O=C(O)C[C@@H]1COc2cc(O[C@@H]3CCc4c3ccc(C(F)(F)F)c4Cc3ccccc3)ccc21 [Example 10, {(S)-6-[(R)-4-Benzyl-5-trifluoromethyl-indan-1-yloxy]-2,3-dihydro-benzofuran-3-yl}-acetic acid] the EC50 was 3 nM. For N#Cc1ccc2c(c1Cc1ccc(O)cc1)CC[C@H]2Oc1ccc2c(c1)OC[C@H]2CC(=O)O [Example 11, {(S)-6-[(R)-5-Cyano-4-(4-hydroxy-benzyl)-indan-1-yloxy]-2,3-dihydro-benzofuran-3-yl}-acetic acid], the EC50 was 12 nM. With C[S+]([O-])c1ccc(Cc2c(C#N)ccc3c2CC[C@H]3Oc2ccc3c(c2)OC[C@H]3CC(=O)O)cc1 (stereo partly drawn) [Example 12, {(S)-6-[(R)-5-Cyano-4-(4-methylsulfinyl-benzyl)-indan-1-yloxy]-2,3-dihydro-benzofuran-3-yl}-acetic acid] the EC50 was 479 nM. COc1ccc(Cc2ccc(F)c3c2CC[C@H]3Oc2ccc3c(c2)OC[C@H]3CC(=O)O)cc1 [Example 13, {(S)-6-[(R)-7-Fluoro-4-(4-methoxybenzyl)-indan-1-yloxy]-2,3-dihydrobenzofuran-3-yl}acetic acid] showed an EC50 of 5 nM. For COc1cccc(Cc2ccc(F)c3c2CC[C@H]3Oc2ccc3c(c2)OC[C@H]3CC(=O)O)c1 [Example 14, {(S)-6-[(R)-7-Fluoro-4-(3-methoxybenzyl)-indan-1-yloxy]-2,3-dihydrobenzofuran-3-yl}-acetic acid], the EC50 was 4 nM. O=C(O)C[C@@H]1COc2cc(O[C@@H]3CCc4c(Cc5ccc(Cl)nc5)ccc(F)c43)ccc21 [Example 15] gave an EC50 of 35 nM. O=C(O)C[C@@H]1COc2cc(O[C@@H]3CCc4c(Cc5ccccc5)ccc(F)c43)ccc21 [Example 16, {(S)-6-[(R)-4-Benzyl-7-fluoro-indan-1-yloxy]-2,3-dihydrobenzofuran-3-yl}-acetic acid] gave an EC50 of 5 nM.
